From US20180333415A1, “THERAPEUTIC METHODS” (REGENTS OF THE UNIVERSITY OF MINNESOTA, priority 2017, published 2018)

How the values were obtained:
[1] = system: MCF7; assay: Measurement of OCR and ECAR (XF Extracellular Flux Analyzer); format: cell-based; conditions: MCF7, poziotinib 40 and 80 uM, endpoint A+270 minutes; P=0.0286 (40 uM), P=0.0001 (80 uM); normalized to 6th measurement DMSO control, n=5, FIG. 4
Procedure: Cells were maintained in growth medium consisting of 10% FBS at 37° C. with 5% CO2 and seeded at 30,000 cells per well in XF24-well cell culture microplates (Seahorse Bioscience, North Billirica, Ma.). Concentrated stocks of poziotinib were prepared in DMSO. Poziotinib was diluted to 10× working concentration in XF assay medium (a non-buffered medium including 2 mM L-glutamine but no sodium bicarbonate (buffering agent), glucose, or sodium pyruvate). Assays were performed in the XF Extracellular Flux Analyzer (Seahorse Bioscience), which measures uptake and excretion of metabolic end products in real time. Oxygen consumption rate (OCR) and extracellular acidification rate (ECAR) were measured using an XF Assay Kit. OCR is reported in pmoles/minute and ECAR in mpH/minute. Before analysis, the cells were switched from culture medium to XF assay medium. After baseline measurements, 75 μl of poziotinib prepared in assay medium was injected into each well to reach final working concentrations. After addition of poziotinib, OCR and ECAR were measured at 18-minute intervals. There were 5 replicates performed for each data point.
OCR was reduced by poziotinib vs. DMSO and was significant at the endpoint of A+270 minutes. […] Results are normalized to the 6th measurement DMSO control and expressed as mean ±S.D. (n=5) (FIG. 4).

[2] = target: CYP3A4 (Homo sapiens, UniProt P08684); assay: Inhibition of CYP3A4 supersome-mediated EET biosynthesis; format: biochemical; conditions: CYP3A4 supersomes, read-out: IC50 for inhibition of EET synthesis
Sequence of CYP3A4 (P08684 whole entry): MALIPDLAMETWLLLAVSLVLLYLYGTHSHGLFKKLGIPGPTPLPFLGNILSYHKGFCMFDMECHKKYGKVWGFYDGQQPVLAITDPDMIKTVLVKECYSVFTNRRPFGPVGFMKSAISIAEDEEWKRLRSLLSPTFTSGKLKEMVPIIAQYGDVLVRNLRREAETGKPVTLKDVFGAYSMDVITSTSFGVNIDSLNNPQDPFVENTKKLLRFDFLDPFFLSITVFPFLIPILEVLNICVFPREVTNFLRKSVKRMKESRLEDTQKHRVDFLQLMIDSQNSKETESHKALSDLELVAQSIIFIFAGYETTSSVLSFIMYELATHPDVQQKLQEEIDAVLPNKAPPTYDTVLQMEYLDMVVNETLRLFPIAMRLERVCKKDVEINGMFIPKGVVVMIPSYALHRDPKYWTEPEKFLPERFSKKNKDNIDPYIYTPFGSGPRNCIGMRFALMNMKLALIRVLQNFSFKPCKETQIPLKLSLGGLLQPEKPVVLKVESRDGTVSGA
Procedure: (§1) Poziotinib was purchased from a commercial source (Selleck Chem catalog number S7358). Assays were conducted using standard techniques that are known in the literature including those described in US Patent Publication U.S. 2015/0342909.
(§2) Poziotinib was tested for inhibition of proliferation of the MCF-7 (HER2 negative) cell line in complete media. The IC50 for inhibition of growth was determined to be approximately 3 μM (FIG. 1). Poziotinib was tested for inhibition of CYP2C8 supersome-mediated EET biosynthesis. The IC50 for inhibition of EET synthesis was determined to be approximately 10 μM (FIG. 2). Poziotinib was tested for inhibition of CYP3A4 supersome-mediated EET biosynthesis. The IC50 for inhibition of EET synthesis was determined to be approximately 10 µM (FIG. 2).

[3] = system: various cancer cell lines including colon/rectal, skin, lung and the breast cancer cell line SK-BR3; conditions: lung and SK-BR3 (overexpresses HER2) cell lines, WO2008/150118; cited from earlier work
[4] = system: MCF-7 (HER2 negative) cell line; assay: Inhibition of proliferation of MCF-7 cell line in complete media; format: cell-based; conditions: Homo sapiens, MCF7, FIG. 1, read-out: IC50 for inhibition of growth
Procedure: as §1, §2

[5] = target: EGFR type I kinase (Homo sapiens, UniProt P00533); conditions: as described in WO2008/150118; cited from earlier work
Sequence of EGFR type I kinase (P00533 25-1210): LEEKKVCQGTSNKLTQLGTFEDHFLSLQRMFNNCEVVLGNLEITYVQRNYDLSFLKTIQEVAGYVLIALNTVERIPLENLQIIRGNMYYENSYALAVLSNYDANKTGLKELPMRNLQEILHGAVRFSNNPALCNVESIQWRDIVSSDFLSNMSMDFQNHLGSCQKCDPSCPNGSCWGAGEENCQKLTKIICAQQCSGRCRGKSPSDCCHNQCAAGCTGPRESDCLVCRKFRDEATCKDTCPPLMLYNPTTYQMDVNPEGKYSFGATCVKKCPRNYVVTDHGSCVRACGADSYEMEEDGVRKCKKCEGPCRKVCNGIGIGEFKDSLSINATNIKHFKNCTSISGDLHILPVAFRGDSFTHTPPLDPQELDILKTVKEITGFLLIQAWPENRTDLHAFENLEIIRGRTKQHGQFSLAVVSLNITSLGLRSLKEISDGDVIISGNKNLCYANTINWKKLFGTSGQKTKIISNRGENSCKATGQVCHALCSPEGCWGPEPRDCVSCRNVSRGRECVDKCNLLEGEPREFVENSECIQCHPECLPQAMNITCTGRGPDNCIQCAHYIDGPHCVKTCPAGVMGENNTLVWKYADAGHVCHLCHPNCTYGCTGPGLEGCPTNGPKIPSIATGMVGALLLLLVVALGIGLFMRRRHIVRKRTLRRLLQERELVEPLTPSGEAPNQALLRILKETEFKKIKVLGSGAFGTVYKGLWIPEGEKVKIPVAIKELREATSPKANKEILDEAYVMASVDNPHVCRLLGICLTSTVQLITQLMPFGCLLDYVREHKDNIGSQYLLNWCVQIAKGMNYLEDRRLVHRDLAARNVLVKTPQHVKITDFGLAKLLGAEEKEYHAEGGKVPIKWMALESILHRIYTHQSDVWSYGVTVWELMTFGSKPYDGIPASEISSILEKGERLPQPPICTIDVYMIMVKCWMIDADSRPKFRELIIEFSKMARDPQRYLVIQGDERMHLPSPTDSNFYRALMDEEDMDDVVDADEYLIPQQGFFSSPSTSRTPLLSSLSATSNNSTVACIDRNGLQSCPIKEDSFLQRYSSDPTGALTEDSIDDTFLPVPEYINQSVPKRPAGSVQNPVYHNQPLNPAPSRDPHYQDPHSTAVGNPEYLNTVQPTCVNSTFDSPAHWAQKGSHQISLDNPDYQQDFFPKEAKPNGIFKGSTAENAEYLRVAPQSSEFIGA

[6] = target: T1, CYP2C8 (Homo sapiens, UniProt P10632); assay: Inhibition of CYP2C8 supersome-mediated EET biosynthesis; format: biochemical; conditions: FIG. 2, read-out: IC50 for inhibition of EET synthesis
T1 sequence (P10632 1-490): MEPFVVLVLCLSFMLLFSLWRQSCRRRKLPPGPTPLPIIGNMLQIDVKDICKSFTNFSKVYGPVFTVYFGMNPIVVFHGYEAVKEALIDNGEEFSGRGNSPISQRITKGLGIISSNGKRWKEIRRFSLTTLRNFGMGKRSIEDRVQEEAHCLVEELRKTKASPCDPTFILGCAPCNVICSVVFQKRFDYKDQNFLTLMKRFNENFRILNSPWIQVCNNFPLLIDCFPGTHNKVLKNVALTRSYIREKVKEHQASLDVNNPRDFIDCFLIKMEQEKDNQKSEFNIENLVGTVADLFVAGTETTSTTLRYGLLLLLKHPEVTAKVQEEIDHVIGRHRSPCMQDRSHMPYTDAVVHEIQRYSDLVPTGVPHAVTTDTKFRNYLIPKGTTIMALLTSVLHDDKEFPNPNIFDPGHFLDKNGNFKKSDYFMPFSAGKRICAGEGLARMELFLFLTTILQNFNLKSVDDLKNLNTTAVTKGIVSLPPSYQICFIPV
Procedure: as §1, §2

Compound: C=CC(=O)N1CCC(Oc2cc3c(Nc4ccc(Cl)c(Cl)c4F)ncnc3cc2OC)CC1 [Poziotinib, 1-(4-((4-((3,4-dichloro-2-fluorophenyl)amino)-7-methoxyquinazolin-6-yl)oxy)piperidin-1-yl)prop-2-en-1-one]
- Oxygen consumption rate (OCR) vs. DMSO [1]: reduced
- IC50 [2]: ~10 µM
- Inhibition of cell growth [3]: inhibit cell growth
- IC50 [4]: ~3000 nM
- Inhibition of EGFR type I kinase [5]: inhibit EGFR type I kinase
- IC50 [6]: ~10 µM
